Source: patent US9695200B2, “Heterocyclic ITK inhibitors for treating inflammation and cancer” (Confluence Life Sciences, Inc., priority 2015, dated 2017)
pIC50: −log10 of the molar value.

Test system: phospho-PLCγ1 in Jurkat cells
Test: ITK target modulation PLC-γ assay (phospho-PLCγ1, αCD3-stimulated Jurkat cells)
Type: cell-based, human
Conditions: Homo sapiens, 1 hour compound incubation, αCD3 Dynabeads stimulation 8 minutes, MSD phospho-PLCγ1, read-out: PLC-γ Inhibition IC50
Description: Jurkat cells, an immortalized human T-lymphocyte cell line, were maintained in RPMI media, 10% FBS, 1% pen/strep/glutamine (growth media). Cells were plated in growth media plus 50 μM β-mercaptoethanol at 400,000 cells per well of a 96 well plate.
Compounds were serially diluted into DMSO, and then into media to concentrations 10× that of the final assay concentration. Compounds were then added to the cells with the final assay DMSO concentration being 0.1%. Cells were incubated for 1 hour at 37° C.
Following compound incubation, αCD3 Dynabeads were added at 1 bead/cell to each assay well and incubated at 37° C. for 7 minutes. Unstimulated control wells received media only. The plate was then placed on a 96-well magnetic plate for an additional 60 seconds (total assay stimulation time equals 8 minutes). The plate was then dumped and gently patted dry on a paper towel. 50 μl of complete Meso Scale Discovery (MSD) Lysis buffer was then added to each well. Samples were assayed for phospho-PLCγ1 using Meso Scale Discovery technology.
The assay stimulation time has been optimized for detection of Itk kinase-mediated phosphorylation of PLCγ1. The timing and detection reagents for this assay could be adjusted to capture phosphorylation events upstream (e.g., phospho-ZAP70) or downstream of the Itk/PLCγ1 node, provided the appropriate phospho-specific antibodies are available for building of an MSD assay.

Compared with `C=CC(=O)NC1CN(c2cnc3[nH]cc(-c4ccnc(C#N)c4)c3c2)C1` [Example 5, N-(1-(3-(2-Cyanopyridin-4-yl)-1H-pyrrolo[2,3-b]pyridin-5-yl)azetidin-3-yl)acrylamide], `C=CC(=O)Nc1cccc(-c2cnc3[nH]cc(-c4ccnc(C)c4)c3c2)c1` [Example 26, N-(3-(3-(2-methylpyridin-4-yl)-1H-pyrrolo[2,3-b]pyridin-5-yl)phenyl)acryl-amide] is higher in pIC50: < 5.30 for the first, > 6.00 for the second. The second is the more potent here.

`C=CC(=O)Nc1cccc(-c2cnc3[nH]cc(-c4cccnc4)c3c2)c1` [Example 12, N-(3-(3-(pyridin-3-yl)-1H-pyrrolo[2,3-b]pyridin-5-yl)phenyl)acryl-amide] and `C=CC(=O)Nc1cccc(-c2cnc3[nH]cc(-c4cncc(Cl)c4)c3c2)c1` [Example 43, N-(3-(3-(5-chloropyridin-3-yl)-1H-pyrrolo[2,3-b]pyridin-5-yl)phenyl)acryl-amide] fall in the same range of pIC50: 5.30 to 6.00 for the first, 5.30 to 6.00 for the second.

Compared with `C=CC(=O)Nc1cc(C#N)cc(-c2cnc3[nH]cc(-c4ccncc4)c3c2)c1` [Example 19, N-(3-cyano-5-(3-(pyridin-4-yl)-1H-pyrrolo[2,3-b]pyridin-5-yl)phenyl)acryl-amide], `C=CC(=O)Nc1cc(OC)cc(-c2cnc3[nH]cc(-c4ccncc4)c3c2)c1` [Example 22, N-(3-methoxy-5-(3-(pyridin-4-yl)-1H-pyrrolo[2,3-b]pyridin-5-yl)phenyl)acryl-amide] is higher in pIC50: < 5.30 for the first, > 6.00 for the second.

`C=CC(=O)Nc1cc(-c2cnc3[nH]cc(-c4ccncc4)c3c2)cc(C(F)(F)F)c1` [Example 20, N-(3-(3-(pyridin-4-yl)-1H-pyrrolo[2,3-b]pyridin-5-yl)-5-(trifluoromethyl)phenyl)acryl-amide] and `C=CC(=O)Nc1cc(-c2cnc3[nH]cc(-c4cccnc4)c3c2)cc(C(F)(F)F)c1` [Example 59, N-(3-(3-(pyridin-3-yl)-1H-pyrrolo[2,3-b]pyridin-5-yl)-5-(trifluoromethyl)phenyl)acryl-amide] cannot be ordered by pIC50: > 6.00 for the first, > 6.00 for the second.

`C=CC(=O)Nc1cccc(-c2cnc3[nH]cc(-c4ccnc(F)c4)c3c2)c1` [Example 25, N-(3-(3-(2-fluoropyridin-4-yl)-1H-pyrrolo[2,3-b]pyridin-5-yl)phenyl)acryl-amide] and `C=CC(=O)Nc1cccc(-c2cnc3[nH]cc(-c4ccnc(NC)c4)c3c2)c1` [Example 32, N-(3-(3-(2-(methylamino)pyridin-4-yl)-1H-pyrrolo[2,3-b]pyridin-5-yl)phenyl)acryl-amide] cannot be ordered by pIC50: > 6.00 for the first, > 6.00 for the second.

First: C=CC(=O)Nc1cccc(-c2cnc3[nH]cc(-c4cc(C)nc(OC)c4)c3c2)c1 [Example 29, N-(3-(3-(2-methoxy-6-methylpyridin-4-yl)-1H-pyrrolo[2,3-b]pyridin-5-yl)phenyl)acryl-amide]
Second: C=CC(=O)Nc1cccc(-c2cnc3[nH]cc(-c4cc(C)cc(OC)n4)c3c2)c1 [Example 52, N-(3-(3-(6-methoxy-4-methylpyridin-2-yl)-1H-pyrrolo[2,3-b]pyridin-5-yl)phenyl)acryl-amide]
The pIC50 of the first is higher: 5.30 to 6.00 for the first, < 5.30 for the second. The first is the more potent here.

Compared with `C=CC(=O)Nc1cccc(-c2cnc3[nH]cc(-c4ccc(OC)nc4)c3c2)c1` [Example 30, N-(3-(3-(6-methoxypyridin-3-yl)-1H-pyrrolo[2,3-b]pyridin-5-yl)phenyl)acryl-amide], `C=CC(=O)Nc1cccc(-c2cnc3[nH]cc(-c4ccc(F)nc4)c3c2)c1` [Example 46, N-(3-(3-(6-fluoropyridin-3-yl)-1H-pyrrolo[2,3-b]pyridin-5-yl)phenyl)acryl-amide] is higher in pIC50: 5.30 to 6.00 for the first, > 6.00 for the second.

First: C=CC(=O)Nc1cccc(-c2cnc3[nH]cc(-c4cc(OC)nc(C(F)(F)F)c4)c3c2)c1 [Example 31, N-(3-(3-(2-methoxy-6-(trifluoromethyl)pyridin-4-yl)-1H-pyrrolo[2,3-b]pyridin-5-yl)phenyl)acryl-amide]
Second: C=CC(=O)Nc1cc(-c2cnc3[nH]cc(-c4ccc(OC)nc4)c3c2)cc(C(F)(F)F)c1 [Example 58, N-(3-(3-(6-methoxypyridin-3-yl)-1H-pyrrolo[2,3-b]pyridin-5-yl)-5-(trifluoromethyl)phenyl)acryl-amide]
The pIC50 of the first is lower: < 5.30 for the first, 5.30 to 6.00 for the second.

First: Cc1cc(-c2c[nH]c3ncc(-c4cccc(/C=C(\C#N)C(N)=O)c4)cc23)ccn1 [Example 33, (E)-2-cyano-3-(3-(3-(2-methylpyridin-4-yl)-1H-pyrrolo[2,3-b]pyridin-5-yl)phenyl)acryl-amide]
Second: COc1cc(/C=C(\C#N)C(N)=O)cc(-c2cnc3[nH]cc(-c4ccnc(OC)c4)c3c2)c1 [Example 60, (E)-2-cyano-3-(3-methoxy-5-(3-(2-methoxypyridin-4-yl)-1H-pyrrolo[2,3-b]pyridin-5-yl)phenyl)acryl-amide]
The pIC50 of the first is higher: 5.30 to 6.00 for the first, < 5.30 for the second. The first is the more potent here.

First: C=CC(=O)Nc1cccc(-c2cnc3[nH]cc(-c4ccccc4C)c3c2)c1 [Example 42, N-(3-(3-(o-tolyl)-1H-pyrrolo[2,3-b]pyridin-5-yl)phenyl)acryl-amide]
Second: C=CC(=O)Nc1cccc(-c2cnc3[nH]cc(-c4cccc5ccccc45)c3c2)c1 [Example 53, N-(3-(3-(naphthalen-1-yl)-1H-pyrrolo[2,3-b]pyridin-5-yl)phenyl)acryl-amide]
The pIC50 of the first is higher: 5.30 to 6.00 for the first, < 5.30 for the second. The first is the more potent here.

`C=CC(=O)Nc1cccc(-c2cnc3[nH]cc(-c4cc(C)ncn4)c3c2)c1` [Example 44, N-(3-(3-(6-methylpyrimidin-4-yl)-1H-pyrrolo[2,3-b]pyridin-5-yl)phenyl)acryl-amide] and `C=CC(=O)Nc1cccc(-c2cnc3[nH]cc(-c4cc(NC)ncn4)c3c2)c1` [Example 56, N-(3-(3-(6-(methylamino)pyrimidin-4-yl)-1H-pyrrolo[2,3-b]pyridin-5-yl)phenyl)acryl-amide] fall in the same range of pIC50: 5.30 to 6.00 for the first, 5.30 to 6.00 for the second.

`C=CC(=O)Nc1cccc(-c2cnc3[nH]cc(-c4ccc(NC)nc4)c3c2)c1` [Example 48, N-(3-(3-(6-(methylamino)pyridin-3-yl)-1H-pyrrolo[2,3-b]pyridin-5-yl)phenyl)acryl-amide] and `C=CC(=O)Nc1cccc(-c2cnc3[nH]cc(-c4cccc(OC)c4)c3c2)c1` [Example 51, N-(3-(3-(3-methoxyphenyl)-1H-pyrrolo[2,3-b]pyridin-5-yl)phenyl)acryl-amide] fall in the same range of pIC50: 5.30 to 6.00 for the first, 5.30 to 6.00 for the second.

Compared with `C=CC(=O)Nc1cccc(-c2cnc3[nH]cc(-c4ccncn4)c3c2)c1` [Example 49, N-(3-(3-(pyrimidin-4-yl)-1H-pyrrolo[2,3-b]pyridin-5-yl)phenyl)acryl-amide], `C=CC(=O)Nc1cccc(-c2cnc3[nH]cc(-c4cccc5cnccc45)c3c2)c1` [Example 55, N-(3-(3-(isoquinolin-5-yl)-1H-pyrrolo[2,3-b]pyridin-5-yl)phenyl)acryl-amide] is lower in pIC50: > 6.00 for the first, < 5.30 for the second.

First: C=CC(=O)Nc1cccc(-c2cnc3[nH]cc(-c4ccc(=O)n(CC5CC5)c4)c3c2)c1 [Example 50, N-(3-(3-(1-(cyclopropyl-methyl)-6-oxo-1,6-dihydropyridin-3-yl)-1H-pyrrolo[2,3-b]pyridin-5-yl)phenyl)acryl-amide]
Second: C=CC(=O)Nc1cccc(-c2cnc3[nH]cc(-c4cccc5ncccc45)c3c2)c1 [Example 54, N-(3-(3-(quinolin-5-yl)-1H-pyrrolo[2,3-b]pyridin-5-yl)phenyl)acryl-amide]
The pIC50 of the first is higher: > 6.00 for the first, 5.30 to 6.00 for the second.

`C=CC(=O)Nc1cc(-c2cnc3[nH]cc(-c4ccc(F)nc4)c3c2)cc(C(F)(F)F)c1` [Example 57, N-(3-(3-(6-fluoropyridin-3-yl)-1H-pyrrolo[2,3-b]pyridin-5-yl)-5-(trifluoromethyl)phenyl)acryl-amide] was tested, and the pIC50 was > 6.00.
